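Interpolation was linear, between the two tested concentrations surrounding the appropriate level; five concentrations were tested over 48 hours in 96-well plates. Abbreviation: GI50, concentration required for 50% inhibition of growth. The concentration for full growth arrest is given as TGI.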
Key:
Experiment in all cases: NCI anticancer screen, dose series, 48 h
SK-MEL-2 melanoma = system: SK-MEL-2 melanoma
SF-539 CNS = system: SF-539 CNS
SK-MEL-28 melanoma = system: SK-MEL-28 melanoma
786-0 renal = system: 786-0 renal
SNB-19 CNS = system: SNB-19 CNS
NCI/ADR-RES ovarian = system: NCI/ADR-RES ovarian
OVCAR-4 ovarian = system: OVCAR-4 ovarian
MALME-3M melanoma = system: MALME-3M melanoma
A549 NSCLC = system: A549 NSCLC
NCI-H460 lung = system: NCI-H460 lung

## CCCCCCc1cc2cc(-c3csc(/C=C/c4ccccc4)n3)c(=O)oc2cc1O
SK-MEL-2 melanoma
  GI50: 18.1 µM
  TGI: 41.1 µM
SF-539 CNS
  GI50: 10 µM
  TGI: 23 µM
SK-MEL-28 melanoma
  GI50: 10.6 µM
  TGI: 24.9 µM
786-0 renal
  GI50: 4.62 µM
  TGI: 17.1 µM
SNB-19 CNS
  GI50: 10.3 µM
  TGI: 34.3 µM
NCI/ADR-RES ovarian
  GI50: 4.53 µM
  TGI: 17.7 µM
OVCAR-4 ovarian
  GI50: 3.56 µM
  TGI: 13.7 µM
MALME-3M melanoma
  GI50: 14.7 µM
  TGI: 34.6 µM
A549 NSCLC
  GI50: 4.27 µM
  TGI: 19 µM
NCI-H460 lung
  GI50: 7.01 µM
  TGI: 21.7 µM

## O=C1C=CC(=O)N1c1ccc(I)cc1
SK-MEL-2 melanoma
  TGI: 40.7 µM
SF-539 CNS
  TGI: > 57.6 µM
SK-MEL-28 melanoma
  TGI: 35.3 µM
786-0 renal
  TGI: 20.7 µM
SNB-19 CNS
  TGI: > 61.5 µM
NCI/ADR-RES ovarian
  TGI: 82.3 µM
OVCAR-4 ovarian
  TGI: 60.2 µM
MALME-3M melanoma
  TGI: 33.1 µM
A549 NSCLC
  TGI: 47 µM
NCI-H460 lung
  TGI: > 86.3 µM

## O=C(NS(=O)(=O)c1ccc(NC[C@H]2COCCO2)c([N+](=O)[O-])c1)c1ccc(N2CCN(CC3=C(c4ccc(Cl)cc4)CC4(CCC4)CC3)CC2)cc1Oc1cnc2[nH]ccc2c1
SK-MEL-2 melanoma
  GI50: 1.77 µM
  TGI: 3.4 µM
SF-539 CNS
  GI50: 1.88 µM
  TGI: 4.03 µM
SK-MEL-28 melanoma
  GI50: 1.58 µM
  TGI: 3.39 µM
786-0 renal
  GI50: 2.47 µM
  TGI: 5.69 µM
SNB-19 CNS
  GI50: 2.39 µM
  TGI: 7.28 µM
NCI/ADR-RES ovarian
  GI50: 4.88 µM
  TGI: 24.9 µM
OVCAR-4 ovarian
  GI50: 2.47 µM
  TGI: 9.81 µM
MALME-3M melanoma
  GI50: 1.69 µM
  TGI: 3.2 µM
A549 NSCLC
  GI50: 3.08 µM
  TGI: 14.2 µM
NCI-H460 lung
  GI50: 2.15 µM
  TGI: 6.12 µM

## Brc1ccc(Nc2nc3ccccc3nc2Nc2ccc(Br)cc2)cc1
SK-MEL-2 melanoma
  GI50: 2.26 µM
  TGI: 5.48 µM
SF-539 CNS
  GI50: 1.51 µM
  TGI: 3.56 µM
SK-MEL-28 melanoma
  GI50: 2.18 µM
  TGI: 6.87 µM
786-0 renal
  GI50: 1.73 µM
  TGI: 5.9 µM
SNB-19 CNS
  GI50: 0.591 µM
  TGI: 12.2 µM
NCI/ADR-RES ovarian
  GI50: 1.62 µM
  TGI: 10.5 µM
OVCAR-4 ovarian
  GI50: 1.25 µM
  TGI: 8.98 µM
MALME-3M melanoma
  GI50: 1.98 µM
  TGI: 4.95 µM
A549 NSCLC
  GI50: 0.393 µM
  TGI: 11 µM
NCI-H460 lung
  GI50: 0.39 µM
  TGI: 2.56 µM

## O=C(O)c1ccc(Oc2nc3ccccc3s2)cc1
SK-MEL-2 melanoma
  TGI: > 100 µM
SF-539 CNS
  TGI: > 100 µM
SK-MEL-28 melanoma
  TGI: > 100 µM
786-0 renal
  TGI: > 100 µM
SNB-19 CNS
  TGI: > 100 µM
NCI/ADR-RES ovarian
  TGI: > 100 µM
OVCAR-4 ovarian
  TGI: > 100 µM
MALME-3M melanoma
  TGI: > 100 µM
A549 NSCLC
  TGI: > 100 µM
NCI-H460 lung
  TGI: > 100 µM

## C/C(=N/NC(=S)N1CC2CCC(CC2)C1)c1cnccn1
SK-MEL-2 melanoma
  TGI: 8.75 µM
SF-539 CNS
  TGI: 15.6 µM
SK-MEL-28 melanoma
  TGI: 22.4 µM
786-0 renal
  TGI: 5.65 µM
SNB-19 CNS
  TGI: 14.2 µM
NCI/ADR-RES ovarian
  TGI: 0.054 µM
OVCAR-4 ovarian
  TGI: 5.59 µM
MALME-3M melanoma
  TGI: 10.3 µM
A549 NSCLC
  TGI: 10.4 µM
NCI-H460 lung
  TGI: 0.273 µM

## NC(=N\N=C/c1ccc(Cl)cc1Cl)/C(N)=N\N=C/c1ccc(Cl)cc1Cl
SK-MEL-2 melanoma
  GI50: > 57.1 µM
  TGI: > 93.6 µM
SF-539 CNS
  GI50: 8.3 µM
  TGI: > 100 µM
SK-MEL-28 melanoma
  GI50: > 100 µM
  TGI: > 100 µM
786-0 renal
  GI50: 1.32 µM
  TGI: 16.7 µM
SNB-19 CNS
  GI50: 26.8 µM
  TGI: > 100 µM
NCI/ADR-RES ovarian
  GI50: 38.7 µM
  TGI: > 100 µM
OVCAR-4 ovarian
  GI50: 0.34 µM
  TGI: 1.65 µM
MALME-3M melanoma
  GI50: 41.3 µM
  TGI: > 100 µM
A549 NSCLC
  GI50: 5.99 µM
  TGI: > 100 µM
NCI-H460 lung
  GI50: 0.795 µM
  TGI: > 100 µM

## O=Cc1ccc(-c2ccc(-c3ccc(C=O)o3)[se]2)o1
SK-MEL-2 melanoma
  GI50: > 100 µM
  TGI: > 100 µM
SF-539 CNS
  GI50: > 100 µM
  TGI: > 100 µM
SK-MEL-28 melanoma
  GI50: > 100 µM
  TGI: > 100 µM
786-0 renal
  GI50: 53.2 µM
  TGI: > 100 µM
SNB-19 CNS
  GI50: > 100 µM
  TGI: > 100 µM
NCI/ADR-RES ovarian
  GI50: > 100 µM
  TGI: > 100 µM
OVCAR-4 ovarian
  GI50: > 100 µM
  TGI: > 100 µM
MALME-3M melanoma
  GI50: > 100 µM
  TGI: > 100 µM
A549 NSCLC
  GI50: > 100 µM
  TGI: > 100 µM
NCI-H460 lung
  GI50: > 100 µM
  TGI: > 100 µM

## O=C(Nc1ccc(I)cc1)c1cccc([N+](=O)[O-])c1O
SK-MEL-2 melanoma
  GI50: 2.6 µM
  TGI: 8.79 µM
SF-539 CNS
  GI50: 4.85 µM
  TGI: > 100 µM
SK-MEL-28 melanoma
  GI50: 4.63 µM
  TGI: > 100 µM
786-0 renal
  GI50: 3.53 µM
  TGI: 24.2 µM
SNB-19 CNS
  GI50: 3.68 µM
  TGI: > 100 µM
NCI/ADR-RES ovarian
  GI50: 2.94 µM
  TGI: > 100 µM
OVCAR-4 ovarian
  GI50: 2.61 µM
  TGI: 25 µM
MALME-3M melanoma
  GI50: 2.47 µM
  TGI: 9.12 µM
A549 NSCLC
  GI50: 4.52 µM
  TGI: > 100 µM
NCI-H460 lung
  GI50: 3.86 µM
  TGI: > 100 µM
